The target in one assay is rat PDE10 enzyme (Rattus norvegicus (Rat), UniProt Q9QYJ6). Description: PDE10 scintillation proximity assay (SPA), inhibition of rat PDE10 enzyme activity. Conditions: geometric mean of 2-4 determinations unless otherwise indicated (b: ≧5 determinations; c: single determination). The format is biochemical. In short, it runs like this:
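SPA with fixed recombinant PDE10 (Sf21-expressed, Ni-NTA and Mono Q purified) converting ~20% of 20 nM ³H-cAMP in 50 mM TRIS pH 7.5, 1.3 mM MgCl2, 0.01% Brij, across an inhibitor range.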

In assay [1] the target is human recombinant PDE10 enzyme (PDE10A) (Homo sapiens, UniProt Q9Y233). Nature of the assay: PDE10 scintillation proximity assay (SPA), inhibition of human recombinant PDE10 enzyme activity. Conditions: geometric mean of 2-4 determinations unless otherwise indicated (b: ≧5 determinations; c: single determination). The format is biochemical. How it is done: PDE10 activity was measured using a scintillation assay (SPA-based method) similar to that previously described by Seeger, T. F. et al., Brain Research 985 (2003) 113-126. The compounds' relative activity as PDE10 inhibitors was investigated by assaying a fixed amount of enzyme in the presence of the test compound and low substrate concentration (cAMP) such that an IC50 could be determined. […] The assay is performed in a 384-well format with 50 μL assay buffer (50 mM TRIS pH 7.5; 1.3 mM MgCl2; 0.01% Brij) containing enough PDE10 to convert ˜20% of 20 nM ^3H-cAMP, and a range of inhibitors. Reactions are incubated for 30 minutes at 25° C. The addition of 20 μL of 8 mg/ml yttrium silicate SPA beads (PerkinElmer) stops the reaction. The plates are sealed (TopSeal, PerkinElmer) and the beads are allowed to settle for 8 hrs, after which they are read on the Trilux Microbeta overnight. ^1Rat enzyme preparation:^2Human enzyme preparation:
Human PDE10A coding sequence (amino acids 21 to 797 from the sequence with accession number NP_001124162.1) was synthesized using codon optimization for insect expression and cloned into the baculovirus expression vector pFastBac (Invitrogen) engineered to include a N-terminal His6 affinity tag to aid in purification as described in Seeger, T. F. et al., Brain Research 985 (2003) 113-126. The recombinant Bacmid was isolated and used to transfect sf9 insect cells to generate a viral stock. To generate cell paste for purification, sf21 cells were infected with the virus stock and cells were harvested 72 hours after infection as described in Seeger, T. F. et al., Brain Research 985 (2003) 113-126. Insect cell paste was lysed and after centrifugation, the supernatant was chromatographed on Ni-NTA agarose (Qiagen) as described in Seeger, T. F. et al., Brain Research 985 (2003) 113-126. Ni-NTA agarose eluting fractions containing PDE10A were chromatographed on Superdex 200 (GE Healthcare Life Sciences) in 50 mM Tris HCl pH 7.5, 150 mM NaCl, 1 mM EDTA, 10% glycerol, 2 mM TCEP, 1.5 mM benzamidine, EDTA-free protease inhibitors (Roche), and 5 μM E-64.

Each structure is given as a SMILES string.

rat PDE10 enzyme, sequence (Q9QYJ6 24-794): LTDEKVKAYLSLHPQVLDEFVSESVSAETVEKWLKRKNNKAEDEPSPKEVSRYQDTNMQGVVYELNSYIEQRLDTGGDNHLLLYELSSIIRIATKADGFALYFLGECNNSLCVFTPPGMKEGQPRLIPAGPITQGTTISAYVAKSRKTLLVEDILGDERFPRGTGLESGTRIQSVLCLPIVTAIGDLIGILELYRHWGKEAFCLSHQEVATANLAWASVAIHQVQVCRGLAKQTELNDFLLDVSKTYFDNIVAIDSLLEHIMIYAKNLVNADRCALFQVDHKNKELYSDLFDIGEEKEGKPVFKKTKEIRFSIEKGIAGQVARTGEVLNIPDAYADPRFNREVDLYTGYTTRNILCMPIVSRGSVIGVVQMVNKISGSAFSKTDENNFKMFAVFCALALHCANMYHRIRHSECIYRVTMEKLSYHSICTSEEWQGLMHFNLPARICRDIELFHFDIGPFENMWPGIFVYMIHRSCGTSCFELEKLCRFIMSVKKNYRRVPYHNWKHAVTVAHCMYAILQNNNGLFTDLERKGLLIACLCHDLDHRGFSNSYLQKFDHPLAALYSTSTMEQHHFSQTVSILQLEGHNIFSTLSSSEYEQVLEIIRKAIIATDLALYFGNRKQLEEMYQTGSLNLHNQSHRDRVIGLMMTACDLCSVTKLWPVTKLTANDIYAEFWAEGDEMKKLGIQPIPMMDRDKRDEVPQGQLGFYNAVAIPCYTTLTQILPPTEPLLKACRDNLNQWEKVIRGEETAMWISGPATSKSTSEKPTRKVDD

By IC50 is commonly meant the concentration needed to halve the response being measured. As to `Cc1nc([C@@H]2CCOC2)c2c(N3CCc4ncccc4C3)ncnn12` [Example 47, 6-{7-methyl-5-[(3S)-tetrahydrofuran-3-yl]imidazo[5,1-f][1,2,4]triazin-4-yl}-5,6,7,8-tetrahydro-1,6-naphthyridine], the values for the concentration for half-maximal inhibition (IC50) (on rat PDE10 enzyme; in assay [1]) were 0.758 nM and 1.42 nM, respectively.
With `Cc1nc([C@@H]2CCOC2)c2c(N3CCc4cc(C5CC5)ncc4C3)ncnn12` [Example 161, 6-cyclopropyl-2-{7-methyl-5-[(3S)-tetrahydrofuran-3-yl]imidazo[5,1-f][1,2,4]triazin-4-yl}-1,2,3,4-tetrahydro-2,7-naphthyridine], the results for the IC50 (on rat PDE10 enzyme; in assay [1]) were 0.163 nM and 0.468 nM, respectively.
Turning to `CCn1ncc2c1CN(c1ncnn3c(C)nc(-c4ccccc4F)c13)CC2` [Example 166, 4-(1-ethyl-1,4,5,7-tetrahydro-6H-pyrazolo[3,4-c]pyridin-6-yl)-5-(2-fluorophenyl)-7-methylimidazo[5,1-f][1,2,4]triazine], the IC50 was found to be 0.435 nM on rat PDE10 enzyme and 0.801 nM in assay [1].
With `CCOc1nc(C2CC2)nc2c1CN(c1ncnn3c(C)nc([C@@H]4CCOC4)c13)CC2` [Example 148, 2-cyclopropyl-4-ethoxy-6-{7-methyl-5-[(3S)-tetrahydrofuran-3-yl]imidazo[5,1-f][1,2,4]triazin-4-yl}-5,6,7,8-tetrahydropyrido[4,3-d]pyrimidine], the IC50 against rat PDE10 enzyme is 0.125 nM; in assay [1], 0.166 nM.
Regarding `COc1ccc2c(c1OCCF)CN(c1ncnn3c(C)nc([C@@H]4CCOC4)c13)CC2` [Example 4, 8-(2-Fluoroethoxy)-7-methoxy-2-{7-methyl-5-[(3S)-tetrahydrofuran-3-yl]imidazo[5,1-f][1,2,4]triazin-4-yl}-1,2,3,4-tetrahydroisoquinoline], the IC50 at rat PDE10 enzyme was determined as 0.205 nM; in assay [1], 0.0386 nM.
In the same order, the values of `Cc1nc([C@@H]2CCOC2)c2c(N3CCc4nn(C)c(C5CC5)c4C3)ncnn12` [Example 44, 4-(3-cyclopropyl-2-methyl-2,4,6,7-tetrahydro-5H-pyrazolo[4,3-c]pyridin-5-yl)-7-methyl-5-[(3S)-tetrahydrofuran-3-yl]imidazo[5,1-f][1,2,4]triazine] are 0.102 nM and 0.11 nM.
Turning to `Cc1nc(C2CC2)nc2c1CN(c1ncnn3c(C)nc(-c4ccccc4F)c13)CC2` [Example 40, 2-cyclopropyl-6-[5-(2-fluorophenyl)-7-methylimidazo[5,1-f][1,2,4]triazin-4-yl]-4-methyl-5,6,7,8-tetrahydropyrido[4,3-d]pyrimidine], the IC50 against rat PDE10 enzyme was determined as 0.442 nM; in assay [1], 0.98 nM.
On to `CCOc1nc(C)nc2c1CN(c1ncnn3c(C)nc([C@@H]4CCOC4)c13)CC2` [Example 35, 4-ethoxy-2-methyl-6-{7-methyl-5-[(3S)-tetrahydrofuran-3-yl]imidazo[5,1-f][1,2,4]triazin-4-yl}-5,6,7,8-tetrahydropyrido[4,3-d]pyrimidine], for which the IC50 at rat PDE10 enzyme was 0.123 nM; in assay [1], 0.275 nM.
Consider `Cc1nc([C@H]2CCCO2)c2c(N3CCc4cnn(C)c4C3)ncnn12` (single isomer, unassigned) [Example 13], for which the IC50 in assay [1] was found to be 7.59 nM.
`Cc1nc(-c2ccccc2F)c2c(N3CCc4nc(C5CC5)n(C)c(=O)c4C3)ncnn12` [Example 142, 2-cyclopropyl-6-[5-(2-fluorophenyl)-7-methylimidazo[5,1-f][1,2,4]triazin-4-yl]-3-methyl-5,6,7,8-tetrahydropyrido[4,3-d]pyrimidin-4(3H)-one]: the 50% inhibitory concentration (IC50) in assay [1] is 1.31 nM.
The compound `Cc1ccc2c(n1)CCN(c1ncnn3c(C)nc(-c4ccccc4F)c13)C2` [Example 138, 6-[5-(2-fluorophenyl)-7-methylimidazo[5,1-f][1,2,4]triazin-4-yl]-2-methyl-5,6,7,8-tetrahydro-1,6-naphthyridine] registered an IC50 on rat PDE10 enzyme of 0.49 nM.
Same read-out and setting: the value for `Cc1nc2c(c(OC(F)F)n1)CN(c1ncnn3c(C)nc(-c4ccccc4F)c13)CC2` [Example 125, 4-(difluoromethoxy)-6-[5-(2-fluorophenyl)-7-methylimidazo[5,1-f][1,2,4]triazin-4-yl]-2-methyl-5,6,7,8-tetrahydropyrido[4,3-d]pyrimidine] was 6.4 nM.
In the case of `COc1nc(C2CC2)nc2c1CN(c1ncnn3c(C)nc([C@@H]4CCOC4)c13)CC2` [Example 39, 2-cyclopropyl-4-methoxy-6-{7-methyl-5-[(3S)-tetrahydrofuran-3-yl]imidazo[5,1-f][1,2,4]triazin-4-yl}-5,6,7,8-tetrahydropyrido[4,3-d]pyrimidine], the IC50 against rat PDE10 enzyme was 0.193 nM.
In turn, `Cc1nn(C)c2c1CN(c1ncnn3c(C)nc([C@H]4CCOC4)c13)CC2` [Example 84, 4-(1,3-dimethyl-1,4,6,7-tetrahydro-5H-pyrazolo[4,3-c]pyridin-5-yl)-7-methyl-5-[(3R)-tetrahydrofuran-3-yl]imidazo[5,1-f][1,2,4]triazine] displayed an IC50 on rat PDE10 enzyme of 8.1 nM.
With `CCc1nc(C2CC2)nc2c1CN(c1ncnn3c(C)nc(-c4ccccc4F)c13)CC2` [Example 136, 2-cyclopropyl-4-ethyl-6-[5-(2-fluorophenyl)-7-methylimidazo[5,1-f][1,2,4]triazin-4-yl]-5,6,7,8-tetrahydropyrido[4,3-d]pyrimidine], the IC50 at rat PDE10 enzyme came to 0.265 nM.
The compound `Cc1nc([C@@H]2CCOC2)c2c(N3CCc4c(O)nc(C5CCCC5)nc4C3)ncnn12` [Example 158, 2-cyclopentyl-7-{7-methyl-5-[(3S)-tetrahydrofuran-3-yl]imidazo[5,1-f][1,2,4]triazin-4-yl}-5,6,7,8-tetrahydropyrido[3,4-d]pyrimidin-4-ol] yielded an IC50 against rat PDE10 enzyme of 0.227 nM.
As to `Cc1nc([C@H]2CCOC2)c2c(N3CCc4c(cnn4C4CC4)C3)ncnn12` [Example 98, 4-(1-cyclopropyl-1,4,6,7-tetrahydro-5H-pyrazolo[4,3-c]pyridin-5-yl)-7-methyl-5-[(3R)-tetrahydrofuran-3-yl]imidazo[5,1-f][1,2,4]triazine], the IC50 at rat PDE10 enzyme was 11.6 nM.
With `COc1cc2c(cc1OC)CN(c1ncnn3c(C)nc(-c4ccccc4C)c13)CC2` [Example 62, 6,7-dimethoxy-2-[7-methyl-5-(2-methylphenyl)imidazo[5,1-f][1,2,4]triazin-4-yl]-1,2,3,4-tetrahydroisoquinoline], on rat PDE10 enzyme, half-maximal inhibition (IC50) was put at 3.87 nM.
Turning to `CCc1nn(C)c2c1CN(c1ncnn3c(C)nc([C@H]4CCCO4)c13)CC2` [Example 80, 4-(3-ethyl-1-methyl-1,4,6,7-tetrahydro-5H-pyrazolo[4,3-c]pyridin-5-yl)-7-methyl-5-[(2R)-tetrahydrofuran-2-yl]imidazo[5,1-f][1,2,4]triazine], the IC50 against rat PDE10 enzyme turned out to be 17.6 nM.
Turning to `COc1cc2c(cc1OC)CN(c1ncnn3c(C)nc(C4CCOCC4)c13)CC2` [Example 59, 6,7-dimethoxy-2-[7-methyl-5-(tetrahydro-2H-pyran-4-yl)imidazo[5,1-f][1,2,4]triazin-4-yl]-1,2,3,4-tetrahydroisoquinoline], 3.1 nM corresponded to half-maximal inhibition against rat PDE10 enzyme (IC50).
Take `Cc1nc(-c2ccccc2F)c2c(N3CCc4ncccc4C3)ncnn12` [Example 151, 6-[5-(2-fluorophenyl)-7-methylimidazo[5,1-f][1,2,4]triazin-4-yl]-5,6,7,8-tetrahydro-1,6-naphthyridine]: at rat PDE10 enzyme, the 50% inhibitory concentration (IC50) was determined as 1.01 nM.
In the case of `Cc1nc(-c2ccc(F)cc2Cl)c2c(N3CCc4cnn(C)c4C3)ncnn12` [Example 122, 5-(2-chloro-4-fluorophenyl)-7-methyl-4-(1-methyl-1,4,5,7-tetrahydro-6H-pyrazolo[3,4-c]pyridin-6-yl)imidazo[5,1-f][1,2,4]triazine], the IC50 at rat PDE10 enzyme stood at 2.65 nM.
Take `Cc1nn(C)c2c1CN(c1ncnn3c(C)nc(-c4ccc(F)cc4Cl)c13)CC2` [Example 121, 5-(2-chloro-4-fluorophenyl)-4-(1,3-dimethyl-1,4,6,7-tetrahydro-5H-pyrazolo[4,3-c]pyridin-5-yl)-7-methylimidazo[5,1-f][1,2,4]triazine]: the IC50 against rat PDE10 enzyme stood at 1.35 nM.
On the same count and under the same terms, as for `[2H]C([2H])([2H])n1c(C2CC2)nc2c(c1=O)CN(c1ncnn3c(C)nc([C@@H]4CCOC4)c13)CC2` [Example 144], the figure is 0.0837 nM; as for `Cc1nc(-c2ccccc2F)c2c(N3CCn4ncc(C(F)(F)F)c4C3)ncnn12` [Example 109, 5-(2-fluorophenyl)-7-methyl-4-[3-(trifluoromethyl)-6,7-dihydropyrazolo[1,5-a]pyrazin-5(4H)-yl]imidazo[5,1-f][1,2,4]triazine], 1.73 nM.
